For one data set, the system named is Male Swiss-Webster mice. Description: 3-nitrotyrosine to tyrosine ratio in mouse striatum after MPTP. The class given is in vivo. As to conditions: MPTP 20 mg/kg x4; 7-NI 25 or 50 mg/kg. The protocol:
Dopamine, 3,4-dihydroxyphenlyacetic acid (DOPAC), homovanillic acid (HVA), p-tyrosine, and 3-nitrotyrosine were quantified by HPLC with 16-electrode electrochemical detection (Beal et al. (1990) supra) and are expressed as ng/mg protein (mean±SEM) (FIG. 1). 3-Nitrotyrosine data are expressed as ratios of 3-nitrotyrosine to p-tyrosine to normalize for differing brain concentrations of tyrosine. The statistical significance of differences was determined via one-way ANOVA followed by Fisher PLSD post hoc test to compare group means. All animal use procedures were in strict accordance with the NIH Guide for the Care and Use of Laboratory Animals and were approved by the local Animal Care Committee.
Role of Peroxynitrite in MPTP. To determine whether peroxynitrite plays a role in MPTP neurotoxicity, we therefore measured the ratio of 3-nitrotyrosine to tyrosine in mouse striatum following administration of MPTP.

The target in data set [1] is T1, MAO-B (Mus musculus, UniProt Q8BW75).
T1 construct: Crude mitochondrial preparations were obtain from the forebrains; from tissue; host or cells: mouse forebrain, crude mitochondrial fraction (P2 pellet on a discontinuous Ficoll gradient)
T1 sequence (Q8BW75 1-520): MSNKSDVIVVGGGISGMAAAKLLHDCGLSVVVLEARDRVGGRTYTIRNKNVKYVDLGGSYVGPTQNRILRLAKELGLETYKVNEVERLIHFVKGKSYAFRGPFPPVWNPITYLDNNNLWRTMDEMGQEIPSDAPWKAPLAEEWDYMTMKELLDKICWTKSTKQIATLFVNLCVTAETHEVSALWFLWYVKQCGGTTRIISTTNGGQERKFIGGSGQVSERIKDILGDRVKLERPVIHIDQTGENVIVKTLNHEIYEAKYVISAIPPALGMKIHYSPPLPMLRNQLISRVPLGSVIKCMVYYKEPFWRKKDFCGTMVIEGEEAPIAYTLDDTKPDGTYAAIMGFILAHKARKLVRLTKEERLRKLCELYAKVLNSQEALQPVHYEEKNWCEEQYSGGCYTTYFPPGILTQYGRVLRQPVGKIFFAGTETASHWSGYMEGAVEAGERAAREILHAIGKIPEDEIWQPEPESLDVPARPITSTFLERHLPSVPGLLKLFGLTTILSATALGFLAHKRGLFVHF
In words: MAO-B activity in forebrain mitochondrial fractions of treated mice. It is filed as biochemical. As to conditions: four doses at 2-h intervals: deprenyl 10 mg/kg i.p. or 7-NI 50 mg/kg s.c.; vehicle 5.79±0.44.

For data set [2], the target named is T1, MAO-B. Description: MAO-B activity in vitro, mitochondrial fraction of mouse forebrain. It is filed as biochemical. As to conditions: at 1, 10, and 100 μM.
In data set [3] the test system is Male Sprague-Dawley rats. In words: Body temperature in rats under pentobarbital anesthesia. The class given is in vivo, rat. To be noted: 1 h after 50 mg/kg 7-NI i.p., control 36.5±0.1, p<0.02. The protocol:
(§1) Stereotaxic Lesion Technique. Male Sprague-Dawley rats (Charles River, Cambridge, Mass.) weighing 300-325 g were anesthetized with pentobarbital (50 mg/kg i.p.) and positioned in a David Kopf stereotaxic instrument with the incisor bar set at 3.3 mm below the intermural line. Malonate, NMDA, KA, and AMPA were dissolved in 0.1M phosphate-buffered saline (pH, 7.4). Intrastriatal injections were made with a 10 μl Hamilton syringe fitted with a 30 gauge blunt-tipped needle into the left striatum at the coordinates 0.5 mm anterior bregma, 2.6 mm lateral to the midline and 5 mm ventral to the dura. Injection volumes were 1 μl (3 μmol malonate). All injections were made over 1 min and the needle was left in place for an additional 1 min before being slowly withdrawn. 7-NI was dissolved and sonicated in peanut oil at a concentration of 10 mg/ml. 50 mg/kg of 7-NI were administered i.p. 30 min before striatal injections of malonate, NMDA, KA and AMPA. […] Nine to ten animals were used per group in each experiment.

The test system of data set [4] is Male Sprague-Dawley rats. In words: Striatal lesions produced by intrastriatal NMDA, AMPA, KA (TTC staining). The class given is in vivo, rat. The protocol:
as §1
Quantification of Lesion Volume. One week after the striatal injections, animals were sacrificed by decapitation and the brains were rapidly removed, placed in cold saline for 10 min, and sectioned coronally into slices at 2 mm intervals. Slices were stained in 2% 2,3,5-triphenyltetrazolium chloride monohydrate (TTC) (Sigma, St. Louis, Mo.) solution at room temperature in the dark for 30 min followed by fixation in phosphate-buffered 4% paraformaldehyde. (Bederson et al. (1986) Stroke 17:1304-1308.) The lesioned area (noted by pale staining) was measured on the posterior surface of each section using an Apple Macintosh.COPYRGT. based image analysis system (Sony color video camera, Software: ColorSnap.COPYRGT. (Computer Friends Inc., Portland, Oreg.) and IPLab Spectrum.COPYRGT. (Signal Analytics, Vienna, Va.)). The lesions were evaluated by an experienced histologist, who verified the reliability of the TTC measurements in animals injected with malonate on adjacent sections stained with either TTC or Nissl stain (Schulz et al. (1995) J. Neurochem 64:in press).

The conditions of data set [5]: Babbedge et al. 1993; Moore et al. 1993; cited from earlier work.
For data set [6] the following is noted: Yoshida et al. 1994; cited from earlier work.
A further data set deals with mice. Description: Rectal temperature in mice. As to conditions: 7-NI 50 mg/kg.
Data set [7] has as its system Male Sprague-Dawley rats. In words: Spontaneous striatal electrophysiological activity. As to conditions: 60 minutes after 50 mg/kg 7-NI; urethane anesthetized rats.
Method: Electrophysiology. Four male Sprague-Dawley rats weighing 300 to 400 g were used for electrophysiological studies. Animals were anesthetized with urethane 1.5 g/kg i.p. and placed in a stereotaxic apparatus with their body temperatures maintained at 37° C. by a feedback heating pad. A 0.5×0.5 cm craniotomy was made and recording electrodes were placed in the anterior striatum using stereotaxic coordinates and aural monitoring. Following electrode placement the craniotomy was covered with 4% agar in saline and 30 min were allowed for stabilization before recordings were made. The spontaneous activity of multiple units were recorded extracellularly in the striatum, 3-4 mm anterior to the bregma and 3-4 mm lateral to the midline at a depth of 2.5-4.0 mm using commercially available tungsten microelectrodes (4 M.OMEGA. at 1 kHz, F. Haer, Inc.). […] Data acquisition and analysis of mean firing rate was performed using Discovery.COPYRGT., Experimenters WorkBench.COPYRGT. and Personal Scientific Workstation.COPYRGT. software (DataWave Technologies, Longmont, Colo.). We investigated the electrophysiological effects of the NMDA antagonist MK-801 and the NOS inhibitor 7-NI. […] Finally, spontaneous activity was recorded after the NMDA channel mediated activity was blocked by injection of MK-801 (4 mg/kg).
The next data set concerns the target dopamine transporter (Mus musculus, UniProt Q61327). As to conditions: at 1, 10 and 100 μM; 0.13 μM [3H]-dopamine.
[8] abbreviates: 2 doses of 50 mg/kg 7-NI 4 h and 0.5 h before striatal injection.

Sequence of dopamine transporter (Q61327 whole entry): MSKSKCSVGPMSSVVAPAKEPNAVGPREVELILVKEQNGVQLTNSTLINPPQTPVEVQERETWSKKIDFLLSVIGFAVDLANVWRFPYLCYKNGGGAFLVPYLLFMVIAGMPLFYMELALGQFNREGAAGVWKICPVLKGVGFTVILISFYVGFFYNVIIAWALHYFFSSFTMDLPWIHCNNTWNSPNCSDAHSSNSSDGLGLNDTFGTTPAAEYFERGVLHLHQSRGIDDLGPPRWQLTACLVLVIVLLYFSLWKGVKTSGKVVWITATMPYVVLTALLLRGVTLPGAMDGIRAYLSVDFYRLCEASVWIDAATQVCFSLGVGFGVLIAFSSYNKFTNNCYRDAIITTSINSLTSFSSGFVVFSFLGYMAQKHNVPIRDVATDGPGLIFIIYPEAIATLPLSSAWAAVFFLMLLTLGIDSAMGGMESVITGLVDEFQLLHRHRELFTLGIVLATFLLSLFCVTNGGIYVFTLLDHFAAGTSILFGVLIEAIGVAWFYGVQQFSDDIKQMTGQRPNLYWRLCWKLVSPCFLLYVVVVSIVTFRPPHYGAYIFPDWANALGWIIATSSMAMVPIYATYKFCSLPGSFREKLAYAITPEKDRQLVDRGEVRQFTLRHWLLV

For the compound `O=[N+]([O-])c1cccc2cn[nH]c12` [7-NI, 7-nitroindazole], the “MPTP-induced increase of 3-nitrotyrosine to tyrosine ratio in striatum” value with Male Swiss-Webster mice is “significantly attenuated”. Further, the “MAO-B activity in forebrain mitochondrial fraction after in vivo treatment” value at MAO-B [1] is 5.69±0.40 nmol/min/mg of protein. The “inhibition of MAO-B activity in vitro” value at MAO-B [2] was “did not inhibit”. In the data set on Male Sprague-Dawley rats [3], the body temperature is 35.9±0.26 ° c. In the data set with Male Sprague-Dawley rats [4] (setting [8]), the “protection against lesions produced by 5 nmol KA” value was “no protection”, the “protection against lesions produced by 30 nmol AMPA” value is listed as “no protection” and the “protection against lesions produced by 200 nmol NMDA” value was 35%. In the data set on Male Sprague-Dawley rats [4] (single dose 7-NI 50 mg/kg i.p. before striatal injection, vehicle 25.0±2.4), the “striatal lesion volume, 200 nmol NMDA” value came to 21.3±3.4 mm^3. Also, the “striatal lesion volume, 30 nmol AMPA” value in the data set on Male Sprague-Dawley rats [4] (single dose 7-NI 50 mg/kg i.p. before striatal injection, vehicle 33.6±4.6) was 30.4±5.2 mm^3. Moreover, in the data set with Male Sprague-Dawley rats [4] (single dose 7-NI 50 mg/kg i.p. before striatal injection, vehicle 39.5±2.9), the “striatal lesion volume, 5 nmol KA” value is listed as 36.3±4.4 mm^3. Also, in data set [5], the “effect on blood pressure in vivo” value was “no effect”. In [6], the “efficacy against focal ischemic lesions in vivo” value is reported as “efficacious”. In addition, the “decrease in rectal temperature vs peanut oil controls” value in the data set with mice (0.5 h after injection, p=0.03) worked out at 0.6 °C. The compound also yielded a rectal temperature with mice (0.5 h after injection, peanut oil controls 36.8±0.2) of 36.2±0.1 °C. The “change in rectal temperature vs peanut oil controls” value with mice (1 h after injection) is recorded as “no significant decrease”. Besides, the “mean spontaneous firing rate in striatum” value in the data set on Male Sprague-Dawley rats [7] is “not significantly different from the baseline”. For the same compound, the “inhibition of [3H]dopamine uptake into synaptosomes” value on dopamine transporter is “did not inhibit”.
